Assay results as given in US11512089B2, “Substituted [1,2,4]triazolo[3,4-a]phthalazines as modulators of GABAA receptor activity” (SHANGHAI SIMR BIOTECHNOLOGY CO., LTD, priority 2018, dated 2022).
Values after ≈ are worked out from the molar mass of the structure shown.

What was measured:
[1] = biological target: T1, α5-GABAA receptor (Homo sapiens, UniProt P18507+P31644); assay: Whole cell patch clamp, inverse agonism efficacy on GABA-induced current in HEK-293 cells expressing α5-GABAA receptor; format: cell-based; settings: HEK293; compound 100 nM, GABA 0.05 μM; ratio to reference compound Example 7 in CN106854207A in the same batch
T1 construct: expressed in transfected cells; host or cells: HEK-293 (monoclonal, stably transfected)
Experimental: The inventors used electrophysiological methods to determine the inverse agonist efficacy of the substances to be tested. The detailed procedures are as follows:
(1) Different subunits of GABAA receptors were expressed in human embryonic kidney cells 293 (HEK293). The cells were cultured in a culture medium and used as a cell model for screening potential analgesics. The α, β and γ subunits are necessary to form complete functional GABAA receptors. In this example, the inventors have established the following cell model: (a) α5 subunit (protein sequence is GenBank accession number: NM_000810.3), (33 subunit (protein sequence is GenBank accession number: NM_000814.5) and γ2 subunit (protein sequence is GenBank accession number: NM_000816.3) were expressed in HEK-293 cell line at the same time, followed by screening the monoclonal cell line. This cell line contained α5-GABAA receptor and had complete GABAA receptor function.
(2) The monoclonal stably transfected HEK-293 cells expressing α5-GABAA receptor were cultured in 10 cm culture dishes. The cells were passaged after reaching 80-90% confluence. During passaging, the culture medium was removed and discarded, 3 mL of DPBS (phosphate buffered saline, Gibco™) was added to the dishes, the dishes were shaken slightly, and DPBS was removed and discarded. 1 mL of trypsin (TrypLE Express, Gibco™) was added and the cells were digested at 37° C. for 1-2 minutes. Then 3 mL of complete medium (DMEM+10% FBS (Gibco™)) was added and the cells at the bottom of the culture dishes were dispersed. The cell suspension were transferred to a 15 mL centrifugal tube (Corning™) and then centrifuged at 200 g for 3 minutes. The supernatant was discarded, 4 mL of complete medium was added, and the cells were resuspended by gently blowing. The cell suspension was diluted by 1:5 or 1:10 for subculturing. The cell suspension was diluted by 1:12 for electrophysiology experiment, and added to a 24 well plate (Corning™) with a glass slide pre-treated with poly-D-lysine placed thereon; the experiment was initiated after the cells were adhered to the slide. The cells for electrophysiology experiment were maintained in culture for no more than 48 hours before use.
(3) Compound concentration: for screening, all compounds were diluted to a final concentration of 100 nM and the concentration of GABA was 0.05 μM. The compounds were at the concentration of 0.3 nM, 3 nM, 10 nM, 30 nM, 100 nM and 300 nM in dose-inverse agonism efficacy (%) experiment. The whole cell patch clamp technique was used in electrophysiology experiments, which can refer to the literature (I. Lecker, Y. Yin, D. S. Wang and B. A. Orser, (2013) Potentiation of GABAA receptor activity by volatile anaesthetics is reduced by α5-GABAA receptor-preferring inverse agonists, British Journal of Anaesthesia 110 (S1): i73-i81). The extracellular solution (ECS) contained: 150 mM NaCl, 5 mM KCl, 2.5 mM CaCl2, 1 mM MgCl2, 10 mM HEPES and 10 mM glucose (pH 7.4); Patch electrodes were filled with an intracellular solution containing: 140 mM CsCl, 11 mM EGTA, 10 mM HEPES, 2 mM CaCl2, 1 mM MgCl2, 4 mM MgATP, 2 mM TEA (pH 7.3). The currents were recorded by an EPC-10 amplifier and the PatchMaster software (HEKA). Patch electrodes with a resistance of 4-6 MΩ were pulled from borosilicate glass. The ALA-VC3-8PP™ system was used for extracellular administration. Separate cells that grew independently was selected for recording. During recording, the membrane voltage was clamped at −60 mV. During experiment, the cells were firstly perfused with ECS for 20 seconds. When the baseline reached to a stable state, the cells were then perfused with GABA solution. Then the current induced by GABA could be detected. After about 20 to 40 seconds, the current was stable. ECS was switched to compounds solution and the effects of the compounds were detected. At last, the perfusion solution was switched to ECS. […]

[2] = Kinetic solubility in 50 mM phosphate buffer pH 7.4; format: physicochemical; settings: aqueous buffer, kinetic from dmso stock, 50 mM phosphate buffer pH 7.4, 2% DMSO, room temperature
Experimental: 50 mM phosphate buffer pH=7.4: 0.39 g of NaH2PO4.2H2O, and 1.4025 g of Na2HPO4 were weighted and placed in an erlenmeyer flask, 240 mL of water was added. The solid was dissolved and mixed thoroughly, the pH value was adjusted to 7.4 with 10M NaOH solution, and the resulting solution was transferred to a 250 mL volumetric flask, followed by adding water to the mark.
Waters e2695 HPLC high performance liquid chromatography, Mettler XSE105 analytical balance.
Firstly, a 10 mM stock solution with DMSO as the solvent was prepared, and was diluted with a diluent (ACN: PB buffer 50:50) into 1 μM-200 μM as standard solution.
Kinetic solubility. 30 μL of the stock solution was placed in a 2 mL centrifuge tube, 1470 μL of 50 mM phosphate buffer (pH 7.4) (containing DMSO at a final concentration of 2%) was added. The mixture was shaken at room temperature (1000 rpm/min) for 24 hours, and then filtered. The filtrate was tested by high performance liquid chromatography (UV).

T1 sequence (P31644 32-462): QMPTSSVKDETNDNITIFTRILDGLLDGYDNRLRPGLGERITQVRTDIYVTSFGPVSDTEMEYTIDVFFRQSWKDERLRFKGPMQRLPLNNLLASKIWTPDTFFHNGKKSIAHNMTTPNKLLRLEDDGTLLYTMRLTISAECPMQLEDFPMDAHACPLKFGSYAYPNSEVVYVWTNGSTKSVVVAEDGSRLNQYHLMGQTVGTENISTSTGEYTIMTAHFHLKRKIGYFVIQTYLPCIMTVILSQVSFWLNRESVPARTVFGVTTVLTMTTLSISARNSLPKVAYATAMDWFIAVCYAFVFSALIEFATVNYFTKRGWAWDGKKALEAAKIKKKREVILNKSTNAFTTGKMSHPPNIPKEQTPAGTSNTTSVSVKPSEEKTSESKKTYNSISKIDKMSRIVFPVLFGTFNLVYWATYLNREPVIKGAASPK
T1 sequence (P28472 26-473 partner): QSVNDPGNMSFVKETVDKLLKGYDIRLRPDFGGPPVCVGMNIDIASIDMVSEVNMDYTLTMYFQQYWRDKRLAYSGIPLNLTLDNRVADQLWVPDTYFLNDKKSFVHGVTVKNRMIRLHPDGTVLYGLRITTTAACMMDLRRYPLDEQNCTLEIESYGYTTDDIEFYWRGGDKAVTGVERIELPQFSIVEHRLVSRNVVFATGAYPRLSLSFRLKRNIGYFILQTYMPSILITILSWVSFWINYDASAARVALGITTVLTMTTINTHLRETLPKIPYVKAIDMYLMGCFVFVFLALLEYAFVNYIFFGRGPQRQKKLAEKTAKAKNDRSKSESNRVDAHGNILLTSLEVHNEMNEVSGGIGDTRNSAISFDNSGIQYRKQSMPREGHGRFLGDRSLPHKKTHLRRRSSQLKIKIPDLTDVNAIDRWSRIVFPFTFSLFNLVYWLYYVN
T1 sequence (P18507 40-467 isoform P18507-1 limits assumed): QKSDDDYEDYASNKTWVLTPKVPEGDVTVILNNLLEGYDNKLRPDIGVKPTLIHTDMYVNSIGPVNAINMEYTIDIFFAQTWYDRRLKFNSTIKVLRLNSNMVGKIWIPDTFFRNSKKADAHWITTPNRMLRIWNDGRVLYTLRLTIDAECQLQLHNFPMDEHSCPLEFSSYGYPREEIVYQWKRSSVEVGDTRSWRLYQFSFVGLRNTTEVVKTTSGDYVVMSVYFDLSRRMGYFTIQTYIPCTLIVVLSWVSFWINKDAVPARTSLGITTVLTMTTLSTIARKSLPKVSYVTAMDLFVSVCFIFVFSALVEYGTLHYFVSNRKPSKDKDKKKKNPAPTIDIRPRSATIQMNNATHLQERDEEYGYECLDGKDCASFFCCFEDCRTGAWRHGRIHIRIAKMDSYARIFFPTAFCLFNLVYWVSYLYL

SMILES	Emax at 0.1 µM [1] [%]	solubility kinetic at 24 h [2] [µg/mL]
COCCCNC(=O)c1ccc(COc2nn3c(-c4cc(COC)on4)nnc3c3ccccc23)nc1 [Compound 08, 6-[3-(5-methoxymethyl-isoxazol-3-yl)-[1,2,4]triazolo[3,4-a]phthalazin-6-yloxymethyl]-N-(3-methoxy-propyl)-nicotinamide]	110	–
COCc1cc(-c2nnc3c4ccccc4c(OCc4ccc(C(=O)N5CC6(COC6)C5)cn4)nn23)no1 [Compound 39]	90.2	48.5 (≈ 94.3 µM)
COCc1cc(-c2nnc3c4ccccc4c(OCc4ccc(C(=O)NC5CN(C(C)=O)C5)cn4)nn23)no1 [Compound 32]	89.1	29.7 (≈ 56.3 µM)
COCc1cc(-c2nnc3c4ccccc4c(OCc4ccc(C(=O)NCCC#N)cn4)nn23)no1 [Compound 28, N-(2-cyano-ethyl)-6-[3-(5-methoxymethyl-isoxazol-3-yl)-[1,2,4]triazolo[3,4-a]phthalazin-6-yloxymethyl]-nicotinamide]	133	3.68 (≈ 7.6 µM)
COCc1cc(-c2nnc3c4ccccc4c(OCc4ccc(C(=O)NC(COC)COC)cn4)nn23)no1 [Compound 30]	85.2	6.85 (≈ 12.8 µM)
COCc1cc(-c2nnc3c4ccccc4c(OCc4ccc(C(=O)NCC5(C)COC5)cn4)nn23)no1 [Compound 20, N-((3-methyl(oxetanyl)-methyl)-6-{3-[5(methoxymethyl)isoxazol-3-yl]-[1,2,4]triazole[3,4-a]phthalazin-6-oxy)methylene}nicotinamide]	118	10.1 (≈ 19.7 µM)
COCCNC(=O)c1ccc(COc2nn3c(-c4cc(COC)on4)nnc3c3ccccc23)nc1 [Compound 07, N-(2-methoxy-ethyl)-6-[3-(5-methoxymethyl-isoxazol-3-yl)-[1,2,4]triazolo[3,4-a]phthalazin-6-yloxymethyl]-nicotinamide]	108	23.2 (≈ 47.4 µM)
COCc1cc(-c2nnc3c4ccccc4c(OCc4ccc(C(=O)N[C@@H](C)COC)cn4)nn23)no1 [Compound 05, (S)—N-(2-methoxy-1-methyl-ethyl)-6-[3-(5-methoxymethyl-isoxazol-3-yl)-[1,2,4]triazolo[3,4-a]phthalazin-6-yloxymethyl]-nicotinamide]	90	25.6 (≈ 50.7 µM)
COCc1cc(-c2nnc3c4ccccc4c(OCc4ccc(C(=O)NCCOC(F)(F)F)cn4)nn23)no1 [Compound 13, 6-[3-(5-methoxymethyl-isoxazol-3-yl)-[1,2,4]triazolo[3,4-a]phthalazin-6-yloxymethyl]-N-(2-trifluoromethoxy-ethyl)-nicotinamide]	–	0.57 (≈ 1.05 µM)
COCc1cc(-c2nnc3c4ccccc4c(OCc4ccc(C(=O)NCC(F)(F)CO)cn4)nn23)no1 [Compound 25]	–	2.71 (≈ 5.16 µM)
COCc1cc(-c2nnc3c4ccccc4c(OCc4ccc(C(=O)NC5CC(F)(F)C5)cn4)nn23)no1 [Compound 03, N-(3,3-difluoro-cyclobutyl)-6-[3-(5-methoxymethyl-isoxazol-3-yl)-[1,2,4]triazolo[3,4-a]phthalazin-6-yloxymethyl]-nicotinamide]	92.1	–

Now from value to molecule:

Emax at 0.1 µM [1] [%]	solubility kinetic at 24 h [2] [µg/mL]	SMILES
78.7	31.7 (≈ 65.3 µM)	COCc1cc(-c2nnc3c4ccccc4c(OCc4ccc(C(=O)N5CCCC5)cn4)nn23)no1 [Compound 48]
86.9	100 (≈ 195 µM)	COCc1cc(-c2nnc3c4ccccc4c(OCc4ccc(C(=O)N5C[C@@H]6C[C@H]5CO6)cn4)nn23)no1 [Compound 43]
77.5	97.9 (≈ 190 µM)	COCc1cc(-c2nnc3c4ccccc4c(OCc4ccc(C(=O)N5CCOC(C)C5)cn4)nn23)no1 (stereo not drawn) [Compound 54]
95.1	4.19 (≈ 8.42 µM)	COCc1cc(-c2nnc3c4ccccc4c(OCc4ccc(C(=O)NC56CC(C5)C6)cn4)nn23)no1 [Compound 31]
73.7	9.11 (≈ 18.8 µM)	COCc1cc(-c2nnc3c4ccccc4c(OCc4ccc(C(=O)NC5CCC5)cn4)nn23)no1 [Compound 23]
111	12.5 (≈ 23.1 µM)	COCc1cc(-c2nnc3c4ccccc4c(OCc4ccc(C(=O)N5CCC6(CC5)COC6)cn4)nn23)no1 [Compound 56, {6-[3-(5-methoxymethyl-isoxazol-3-yl)-[1,2,4]triazolo[3,4-a]phthalazin-6-yloxymethyl]-pyridin-3-yl}-(2-oxa-7-aza-spiro[3.5]non-7-yl)-methanone]
88.4	6.93 (≈ 13.4 µM)	COCc1cc(-c2nnc3c4ccccc4c(OCc4ccc(C(=O)N5CCC(O)CC5)cn4)nn23)no1 [Compound 45]
75.2	–	COCc1cc(-c2nnc3c4ccccc4c(OCc4ccc(C(=O)N5CCCCC5)cn4)nn23)no1 [Compound 49, (6-(((3-(5-(methoxymethyl)isoxazol-3-yl)-[1,2,4]triazolo[3,4-a]phthalazin-6-yl)oxy)methyl)pyridin-3-yl)(piperidin-1-yl)methanone]
105	–	COCc1cc(-c2nnc3c4ccccc4c(OCc4ccc(C(=O)NC5COC5)cn4)nn23)no1 [Compound 17, 6-[3-(5-methoxymethyl-isoxazol-3-yl)-[1,2,4]triazolo[3,4-a]phthalazin-6-yloxymethyl]-N-oxetan-3-yl-nicotinamide]
78.3	31.9 (≈ 63.9 µM)	COCc1cc(-c2nnc3c4ccccc4c(OCc4ccc(C(=O)N(C)CC5CC5)cn4)nn23)no1 [Compound 40]
72.5	97.8 (≈ 190 µM)	COCc1cc(-c2nnc3c4ccccc4c(OCc4ccc(C(=O)N5CCOCC5C)cn4)nn23)no1 (stereo not drawn) [Compound 47, (6-(((3-(5-(methoxymethyl)isoxazol-3-yl)-[1,2,4]triazolo[3,4-a]phthalazin-6-yl)oxy)methyl)pyridin-3-yl)(3-methylmorpholino)methanone]
94.6	–	COCc1cc(-c2nnc3c4ccccc4c(OCc4ccc(C(=O)N5CC(F)(F)C5)cn4)nn23)no1 [Compound 46, (3,3-difluoroazetidin-1-yl)(6-(((3-(5-(methoxymethyl)isoxazol-3-yl)[1,2,4]triazolo[3,4-a]phthalazin-6-yl)oxy)methyl)pyridin-3-yl)methanone]
115	10.8 (≈ 21.4 µM)	COCc1cc(-c2nnc3c4ccccc4c(OCc4ccc(C(=O)NCC5COC5)cn4)nn23)no1 [Compound 18]
–	20.3 (≈ 40.6 µM)	COCc1cc(-c2nnc3c4ccccc4c(OCc4ccc(C(=O)NC5CCOC5)cn4)nn23)no1 (stereo not drawn) [Compound 26, 6-[3-(5-methoxymethyl-isoxazol-3-yl)-[1,2,4]triazolo[3,4-a]phthalazin-6-yloxymethyl]-N-(tetrahydrofuran-3-yl)-nicotinamide]
